Results as given in the supplement of paper PMC5908809.

What was measured:
[1] = system: normal NK cells expanded with K562-aAPC; experiment: percent inhibition of viability; higher = more inhibition; details: 72 h, IL-2 2.5 ng/mL
Protocol: (§1)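 Drug sensitivity and resistance testing on K562-aAPC-expanded normal NK cells: 5 concentrations (10-fold steps over a 10,000-fold range), 72 h at 37 °C, viability by CellTiter-Glo normalised to DMSO and benzethonium chloride controls; DSS from the fitted curve.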

[2] = system: KHYG-1 (IL-2 2.5 ng/mL); experiment: drug sensitivity score (DSS) (DSS units); higher = more sensitive; extreme values may be limits of the assay; details: 72 h
[3] = system: normal primary NK cells, pool 1 (3 donors), resting (IL-2 0 ng/mL); experiment: as above; details: 72 h
[4] = system: normal primary NK cells, pool 1 (3 donors) (IL-2 2.5 ng/mL); experiment: as above; details: 72 h
[5] = system: SNK-6 (IL-2 2.5 ng/mL); experiment: as above; details: 72 h
[6] = system: normal primary NK cells, pool 3 (3 donors) (IL-2 2.5 ng/mL); experiment: as above; details: 72 h
[7] = system: normal primary NK cells, pool 2 (3 donors) (IL-2 2.5 ng/mL); experiment: as above; details: 72 h
[8] = system: KAI3 (IL-2 2.5 ng/mL); experiment: as above; details: 72 h
[9] = system: NK-92 (IL-2 2.5 ng/mL); experiment: as above; details: 72 h
[10] = system: YT (IL-2 2.5 ng/mL); experiment: as above; details: 72 h
[11] = system: DERL-7 (IL-2 2.5 ng/mL); experiment: as above; details: 72 h
[12] = system: NK-YS (IL-2 2.5 ng/mL); experiment: as above; details: 72 h
[13] = system: NKL (IL-2 2.5 ng/mL); experiment: as above; details: 72 h
[14] = system: IMC-1 (IL-2 20 ng/mL); experiment: as above; details: 72 h
[15] = system: KHYG-1 (IL-2 2.5 ng/mL); experiment: percent inhibition of viability; higher = more inhibition; details: 72 h
[16] = system: normal primary NK cells, pool 1 (3 donors), resting (IL-2 0 ng/mL); experiment: as above; details: 72 h
[17] = system: normal primary NK cells, pool 1 (3 donors) (IL-2 2.5 ng/mL); experiment: as above; details: 72 h
[18] = system: SNK-6 (IL-2 2.5 ng/mL); experiment: as above; details: 72 h
[19] = system: normal primary NK cells, pool 3 (3 donors) (IL-2 2.5 ng/mL); experiment: as above; details: 72 h
[20] = system: normal primary NK cells, pool 2 (3 donors) (IL-2 2.5 ng/mL); experiment: as above; details: 72 h
[21] = system: KAI3 (IL-2 2.5 ng/mL); experiment: as above; details: 72 h
[22] = system: NK-92 (IL-2 2.5 ng/mL); experiment: as above; details: 72 h
[23] = system: YT (IL-2 2.5 ng/mL); experiment: as above; details: 72 h
[24] = system: DERL-7 (IL-2 2.5 ng/mL); experiment: as above; details: 72 h
[25] = system: NK-YS (IL-2 2.5 ng/mL); experiment: as above; details: 72 h
[26] = system: NKL (IL-2 2.5 ng/mL); experiment: as above; details: 72 h
[27] = system: IMC-1 (IL-2 20 ng/mL); experiment: as above; details: 72 h
[28] = system: normal NK cells expanded with K562-aAPC; experiment: drug sensitivity score (DSS) (DSS units); higher = more sensitive; extreme values may be limits of the assay; details: 72 h; IL-2 2.5 ng/mL
Protocol: as §1

O[C@H]1CC[C@H](Nc2ncc3nc(Nc4c(F)cc(F)cc4F)n([C@H]4CCOC4)c3n2)CC1 [Tanzisertib] (max concentration tested 10000 nM)
percent inhibition of viability [%]
Details | 1 nM | 10 nM | 100 nM | 1000 nM | 10000 nM
[1] | -0.53 | 1.03 | -5.53 | 1.96 | 16.8
[15] | 0.6 | 1.16 | 7.05 | 3.25 | 12.8
[16] | -2.07 | -5.9 | 3.76 | -27.5 | -23.7
[17] | -1.02 | -9.12 | -4.55 | -5.56 | 12.8
[18] | -5.24 | -3.37 | -1.51 | -9.49 | -28.9
[19] | -10.2 | -3.98 | 0.77 | -8.69 | 3.78
[20] | -13.6 | -1.21 | 2.95 | -6.75 | 12.9
[21] | -8.76 | -8.77 | 4.38 | -3.26 | 2.19
[22] | -1.51 | -5.43 | 11.5 | -0.78 | 4.63
[23] | 1.29 | 0.43 | 6.25 | 4.44 | 17.9
[24] | 2.01 | 0.84 | 5.01 | 1.8 | 18.5
[25] | -2.74 | -2.64 | 8.64 | 8.4 | 27.7
[26] | -12.2 | -7.14 | 8.81 | 20.3 | 40
[27] | -1.71 | -1.33 | 2.23 | -2.89 | 5.65

Details | drug sensitivity score
[2] | 0
[3] | 0
[4] | 0.03
[5] | 0
[6] | 0
[7] | 0.02
[8] | 0
[9] | 0
[10] | 0.43
[11] | 0.7
[12] | 1.7
[13] | 4.27
[14] | 0
[28] | 0.57

Cn1nnc2c(C(N)=O)ncn2c1=O [Temozolomide] (max concentration tested 100000 nM)
percent inhibition of viability [%]
Details | 10 nM | 100 nM | 1000 nM | 10000 nM | 100000 nM
[1] | 0.11 | -2.44 | 4.25 | 0.95 | 10.9
[15] | -3.41 | -4.13 | 0.86 | 0.71 | 8.74
[16] | -13.7 | -5.7 | -14.4 | -9.04 | -7.4
[17] | -7.39 | 2.46 | -6.83 | -0.09 | 5.41
[18] | -0.07 | 8.23 | 35.2 | 72.8 | 88.5
[19] | -14.7 | -11.8 | -7.32 | 6.58 | 17.2
[20] | -14.2 | -9.61 | -8.15 | 11.5 | 10
[21] | -11.8 | -10.3 | -9.47 | -11.7 | 12.9
[22] | -7.14 | -7.33 | -5.28 | 7.55 | 32.4
[23] | -4.31 | -3.78 | -0.54 | -3.29 | 0.79
[24] | -3.81 | 2.52 | -0.21 | 4.75 | -1.49
[25] | -2.59 | -6.14 | 2.38 | 3.13 | 22.3
[26] | -9.55 | -19.8 | -10.2 | 4.85 | 65.2
[27] | 1.34 | -6.01 | 5.36 | 17.9 | 74.4

Details | drug sensitivity score
[2] | 0
[3] | 0
[4] | 0
[5] | 18
[6] | 1.03
[7] | 0.32
[8] | 0.01
[9] | 2.63
[10] | 0
[11] | 0
[12] | 1.21
[13] | 4.31
[14] | 6.93
[28] | 0.02
